Measured values published in patent US8445691B2, “Heterocyclic thiosubstituted alkanol derivatives” (Bayer CropScience AG, priority 2010, dated 2013).
Values joined by “and” are separate entries in the source; they are usually repeats but may differ in a detail not shown here. Equal values may be shown once.

Legend:
Alternaria solani = experiment: Alternaria test (tomato) / protective; assay type: in vivo; conditions: 500 ppm active ingredient, protective spray on young tomato plants, evaluation 7 days after inoculation; 0% = control, 100% = no infection
Procedure: Alternaria Test (Tomato)/Protective
(§1) • Solvent: 49 parts by weight of N,N-dimethylformamide • Emulsifier: 1 part by weight of alkylaryl polyglycol ether
To produce an appropriate active ingredient formulation, 1 part by weight of active ingredient is mixed with the specified amounts of solvent and emulsifier, and the concentrate is diluted with water to the desired concentration. To test for protective activity, young tomato plants are sprayed with the active ingredient formulation at the stated application rate. One day after the treatment, the plants are inoculated with a spore suspension of Alternaria solani and are then left to stand at 100% relative humidity and 22° C. for 24 h. Subsequently, the plants are left to stand at 96% relative air humidity and a temperature of 20° C. Evaluation follows 7 days after the […]. 0% means an efficacy which corresponds to that of the control, whereas an efficacy of 100% means that no infection is observed.

Sphaerotheca fuliginea = experiment: Sphaerotheca test (cucumber) / protective; assay type: in vivo; conditions: 500 ppm active ingredient, protective spray on young cucumber plants, evaluation 7 days after inoculation; 0% = control, 100% = no infection
Procedure: Sphaerotheca Test (Cucumber)/Protective
as §1
To produce an appropriate active ingredient formulation, 1 part by weight of active ingredient is mixed with the specified amounts of solvent and emulsifier, and the concentrate is diluted with water to the desired concentration. To test for protective activity, young cucumber plants are sprayed with the formulation of active ingredient at the stated application rate. 1 day after the treatment, the plants are inoculated with a spore suspension of Sphaerotheca fuliginea. The plants are then placed in a greenhouse at 70% relative air humidity and a temperature of 23° C. Evaluation follows 7 days after the inoculation. 0% means an efficacy which corresponds to that of the control, whereas an efficacy of 100% means that no infection is observed.

[1] = logP by reversed-phase HPLC (EEC Directive 79/831 Annex V.A8); assay type: physicochemical; conditions: method [a]: LC-MS, acidic range pH 2.7, 0.1% aqueous formic acid / acetonitrile, linear gradient 10% to 95% acetonitrile, C18 reversed phase
Procedure: The logP values were measured in accordance with EEC Directive 79/831 Annex V.A8 by HPLC (High Performance Liquid Chromatography) using reversed-phase columns (C 18) by the following methods:
[a] The LC-MS determination in the acidic range is effected at pH 2.7 with 0.1% aqueous formic acid and acetonitrile (contains 0.1% formic acid) as eluents; linear gradient from 10% acetonitrile to 95% acetonitrile.

SMILES	efficacy (Alternaria solani) [%]	efficacy (Sphaerotheca fuliginea)	logP [1]
CC(C)(C)C(O)(CSc1ccc(I)cc1)c1cncs1 (stereo not drawn) [Compound 2]	86	95%	
CC(C)(C)C(O)(CSc1ccc(Cl)s1)c1cncs1 (stereo not drawn) [Compound 4]			logP 3.68^[a]; [M]^+ = 334.
CC(C)C(O)(CSc1ccc(I)cc1)c1cncs1 (stereo not drawn) [Compound 6]		80%	
CC(C)(C)C(O)(CSCc1ccc(Cl)cc1Cl)c1cncs1 (stereo not drawn) [Compound 10]			logP 4.29^[a]; [M]^+ = 375.
CC(C)(C)C(O)(CSc1ccc(Cl)cc1Cl)c1cncs1 (stereo not drawn) [Compound 11]	99	80%	logP 3.96^[a]; [M]^+ = 361.
Cc1ccc(SCC(O)(c2cncs2)C(C)(C)C)cc1 (stereo not drawn) [Compound 12]			logP 3.63^[a]; [M]^+ = 307.
CC1(C(O)(CSc2ccc(I)cc2)c2cncs2)CCCCC1 (stereo not drawn) [Compound 13]	99	89%	
CC(C)Oc1ccc(SCC(O)(c2cncs2)C2(C)CCCCC2)cn1 (stereo not drawn) [Compound 16]	94		logP 4.70^[a]; [M]^+ = 393.
CC(C)(C)C(O)(CSc1ccc(Cl)cc1)c1cncs1 (stereo not drawn) [Compound 17]			log p 3.64^[a]
COc1ccc(SCC(O)(c2cncs2)C(C)(C)C)cc1 (stereo not drawn) [Compound 18]			log p 3.16^[a]
CC(C)(C)c1ccc(SCC(O)(c2cncs2)C(C)(C)C)cc1 (stereo not drawn) [Compound 19]			log p 3.7^[a]
CC(C)(C)C(O)(CSc1cccc(Br)c1)c1cncs1 (stereo not drawn) [Compound 20]			log p 3.74^[a]
CC(C)(C)C(O)(CSc1ccccc1Br)c1cncs1 (stereo not drawn) [Compound 21]			log p 3.5^[a]
Cc1ccc([S+]([O-])CC(O)(c2cncs2)C(C)(C)C)c(C)c1 (stereo not drawn) [Compound 23]			log p 2.92^[a]
CC(C)C(O)(CSc1nncn1-c1c(F)cccc1F)c1cncs1 (stereo not drawn) [Compound 24]			log p 1.8^[a]
CC(C)C(O)(CSc1nncn1-c1ccccc1)c1cncs1 (stereo not drawn) [Compound 25]			log p 1.76^[a]
CC(C)(C)C(O)(CSC1CCCCC1)c1cncs1 (stereo not drawn) [Compound 26]			log p 4.17^[a]
CC(C)(C)C(O)(CSc1ccccc1Br)c1cnc(Sc2ccccc2Br)s1 (stereo not drawn) [Compound 27]			log p 5.78^[a]
Cc1ccc(SCC(O)(c2cncs2)C(C)(C)C)c(C)c1 (stereo not drawn) [Compound 28]			log p 4.02^[a]
CC(C)C(O)(CSc1nncn1C1CCCCC1)c1cncs1 (stereo not drawn) [Compound 31]			log p 2.04^[a]

SMILES	efficacy (Alternaria solani) [%]	efficacy (Sphaerotheca fuliginea)	logP [1]
CC(C)(C)C(O)(CSc1ccc(Cl)cc1)Cc1cncs1 (stereo not drawn) [Compound 34]	99		
CC(C)(C)C(O)(CSc1ccc2ccccc2c1)c1cncs1 (stereo not drawn) [Compound 35]			log p 3.92^[a]
CC(C)(C)C(O)(CSc1cccc2ccccc12)c1cncs1 (stereo not drawn) [Compound 36]			log p 3.87^[a]
Cc1ccc(SCC(O)(c2cncs2)C(C)(C)C)cc1 (stereo not drawn) [Compound 37]			log p 3.63^[a]
CC(C)(C)C(O)(CSc1ccc(Cl)c(Cl)c1)c1cncs1 (stereo not drawn) [Compound 38]	75	80% and 90%	log p 4.05^[a]
CC(C)(C)C(O)(CSc1cccc(Oc2ccccc2)c1)c1cncs1 (stereo not drawn) [Compound 39]			log p 4.33^[a]
CC(C)(C)C(O)(CSc1ccc(C(=O)NC2CC2)cc1Cl)c1cncs1 (stereo not drawn) [Compound 40]			log p 2.54^[a]
COC(=O)c1ccc(SCC(O)(c2cncs2)C(C)(C)C)cc1 (stereo not drawn) [Compound 41]			log p 3.01^[a]
CC(=O)c1ccccc1SCC(O)(c1cncs1)C(C)(C)C (stereo not drawn) [Compound 42]			log p 2.66^[a]
CC(C)(C)C(O)(CSc1cc(C(F)(F)F)ccc1Cl)c1cncs1 (stereo not drawn) [Compound 43]			log p 4.02^[a]
CC(C)(C)C(O)(CSc1ccc(-c2ccccc2)cc1)c1cncs1 (stereo not drawn) [Compound 44]	100		log p 4.39 ^[a]
CCOC(=O)c1ccc(SCC(O)(c2cncs2)C(C)(C)C)c(C)c1 (stereo not drawn) [Compound 45]			log p 3.7 ^[a]
CC(Oc1ccc(SCC(O)(c2cncs2)C(C)(C)C)cc1)C(C)(C)C (stereo not drawn) [Compound 46]			log p 5.53^[a]
CC(C)(C)C(O)(CSc1ccc(F)cc1F)c1cncs1 (stereo not drawn) [Compound 47]			log p 3.26^[a]
CC(C)(C)C(=O)Nc1ccc(SCC(O)(c2cncs2)C(C)(C)C)cc1 (stereo not drawn) [Compound 48]			log p 3.14^[a]
CC(=O)c1ccc(SCC(O)(c2cncs2)C(C)(C)C)c(Cl)c1 (stereo not drawn) [Compound 49]			log p 2.91^[a]
CC(C)(C)C(O)(CSc1ccc(F)c(F)c1)c1cncs1 (stereo not drawn) [Compound 50]			log p 3.3^[a]
CSc1ccc(SCC(O)(c2cncs2)C(C)(C)C)cc1 (stereo not drawn) [Compound 51]			log p 3.59^[a]
CCOC(=O)c1ccc(SCC(O)(c2cncs2)C(C)(C)C)cc1 (stereo not drawn) [Compound 52]			log p 3.41^[a]
CC(C)(C)C(O)(CSc1ccc(C(=O)c2ccccc2)cc1)c1cncs1 (stereo not drawn) [Compound 53]			log p 3.66^[a]

SMILES	efficacy (Alternaria solani) [%]	efficacy (Sphaerotheca fuliginea)	logP [1]
CC(=O)Nc1cccc(SCC(O)(c2cncs2)C(C)(C)C)c1 (stereo not drawn) [Compound 54]			log p 2.15^[a]
CCc1cccc(C)c1SCC(O)(c1cncs1)C(C)(C)C (stereo not drawn) [Compound 55]			log p 4.41^[a]
CCc1cccc(CC)c1SCC(O)(c1cncs1)C(C)(C)C (stereo not drawn) [Compound 56]			log p 4.78^[a]
CC(C)(C)C(O)(CSc1cc(C(F)(F)F)cc(C(F)(F)F)c1)c1cncs1 (stereo not drawn) [Compound 58]			log p 4.37^[a]
CC(C)(C)C(O)(CSc1cc(Cl)cc(Cl)c1)c1cncs1 (stereo not drawn) [Compound 59]			log p 4.18^[a]
CC(C)(C)C(O)(CSc1cccc(Cl)c1Cl)c1cncs1 (stereo not drawn) [Compound 60]	94		log p 3.76^[a]
CC(C)(C)C(O)(CSc1cccc(C(F)(F)F)c1)c1cncs1 (stereo not drawn) [Compound 61]			log p 3.74^[a]
CC(C)(C)C(O)(CSc1cc(Cl)c(Cl)cc1Cl)c1cncs1 (stereo not drawn) [Compound 62]			log p 4.41^[a]
Cc1cccc(SCC(O)(c2cncs2)C(C)(C)C)c1 (stereo not drawn) [Compound 63]			log p 3.57^[a]
Cc1ccccc1SCC(O)(c1cncs1)C(C)(C)C (stereo not drawn) [Compound 64]			log p 3.52^[a]
CC(C)(C)C(O)(CSc1ccc(F)cc1)c1cncs1 (stereo not drawn) [Compound 65]			log p 3.21^[a]
CC(=O)Nc1ccc(SCC(O)(c2cncs2)C(C)(C)C)cc1 (stereo not drawn) [Compound 66]			log p 2.13^[a]
COC(=O)c1ccccc1SCC(O)(c1cncs1)C(C)(C)C (stereo not drawn) [Compound 67]			log p 2.95^[a]
Cc1cc(C)cc(SCC(O)(c2cncs2)C(C)(C)C)c1 (stereo not drawn) [Compound 68]			log p 4.06^[a]
CCc1ccccc1SCC(O)(c1cncs1)C(C)(C)C (stereo not drawn) [Compound 69]			log p 3.9^[a]
Cc1ccc(C)c(SCC(O)(c2cncs2)C(C)(C)C)c1 (stereo not drawn) [Compound 70]			log p 3.98^[a]
CC(C)(C)C(O)(CSc1ccccc1Cl)c1cncs1 (stereo not drawn) [Compound 71]			log p 3.37^[a]
CC(C)(C)C(O)(CSc1cccc(Cl)c1)c1cncs1 (stereo not drawn) [Compound 72]			log p 3.59^[a]
CC(C)(C)C(O)(CSc1ccccc1)c1cncs1 (stereo not drawn) [Compound 73]			log p 3.8^[a]
CC(C)(C)C(O)(CSc1cc(Cl)ccc1Cl)c1cncs1 (stereo not drawn) [Compound 74]			log p 3.83^[a]
